Converted amounts (≈) assume the structure as drawn. Read-outs that look alike come from different tables or passages of the source.
Assays:
[1] = Cytotoxicity against THP1 macrophage cell lines; assay type: cell-based; conditions: human
[2] = physchem; conditions: pH 6.8, aqueous buffer, thermodynamic from solid
[3] = in vitro; conditions: human, Caco-2
[4] = test system: M. tuberculosis (Mtb) (H37Rv, ATCC 27294); test: microbe, parasite or virus in culture; assay type: cell-based; conditions: Mycobacterium tuberculosis
[5] = in vivo; conditions: female, CD-1, mouse, po
[6] = test system: Mtb; conditions: murine model, cited from earlier work
[7] = physchem
[8] = In vivo plasma PK after intravenous dosing; conditions: mice; for half-life: female, CD-1, mouse, plasma, iv, T1/2 (i.v)
[9] = In vivo lung PK after oral dosing; conditions: female, CD-1, mouse
[10] = in vitro; conditions: mouse, plasma
[11] = In vivo plasma PK after oral dosing in CM-2 formulation; conditions: for half-life: female, CD-1, mouse, plasma, po
[12] = female, CD-1, mouse, in vivo, po
[13] = parameters: method as in PMID 16870750; conditions: mice dosed for 2 months; cited from earlier work
[14] = PAMPA permeability
[15] = female, CD-1, mouse, in vivo, po, 25 mg/kg
[16] = parameters: method as in PMID 19528280; conditions: healthy subjects, oral daily doses for 7 days; cited from earlier work
[17] = in vivo; conditions: female, CD-1, mouse, po; remark: listed apart in the source
[18] = test system: Mtb H37Rv; test: In vivo mouse efficacy, established murine TB model; parameters: species or system Balb/c mice; conditions: for Dose dependence of efficacy, in words: 25 versus 100 mg/kg oral daily for 4 weeks; for log reduction at 25 mg/kg / log reduction at 100 mg/kg: Mycobacterium tuberculosis, H37RV, po, 672 h, read-out: Mean log lung CFU reduction ± SEM compared to untreated controls; for Efficacy compared with PA-824, in words: significance at P<0.05
Experimental: In vivo mouse efficacy studies were determined after intranasal infection of Balb/c mice with 10^3 cfu Mtb H37Rv. Treatment was initiated 4 weeks after infection. Compounds were orally administered in CM-2 formulation for 4 weeks daily. Bacterial loads were determined at 2 and 4 weeks post treatment. Statistical analysis was done by a one-way analysis of variance, followed by a multiple comparison analysis of variance by a one-way Tukey test (GraphPad Prism, version 5.02, San Diago, California USA, www.graphpad.com). Differences were considered statistically significant at the 95% level of confidence.

[19] = in vivo; conditions: female, CD-1, mouse, iv; for clearance: i.v. CL
[20] = test system: CaCo-2 colon carcinoma cell lines
[21] = female, CD-1, mouse, in vivo, iv, 5 mg/kg
[22] = mouse plasma, single oral dose 25 mg/kg, CM-2
[23] = 25 mg/kg, Lung to Plasma ratio AUC24
[24] = 25 mg/kg, Lung to Plasma ratio Cmax
[25] = 25 mg/kg oral daily for 4 weeks, mean value from three independent experiments (n = 15)
[26] = 25 mg/kg oral daily for 4 weeks, 5 animals
[27] = 100 mg/kg oral daily for 4 weeks, 5 animals
[28] = 100 mg/kg oral daily for 4 weeks

Compound | solubility [2] [µg/mL] | Papp A→B [3] [×10⁻⁶ cm/s] | Papp B→A [3] [×10⁻⁶ cm/s] | efflux ratio [3] | MIC99 [4] [µg/mL] | AUC ([5]; 25 mg/kg) [ng·h/mL] | logP [7] | half-life ([9]; 25 mg/kg) [h] | fraction unbound [10] | Lung AUC24 ([12]; 25 mg/kg) [µg·h/g] | Lung Cmax ([12]; 25 mg/kg) [µg/g] | Kp [17, 23] | Kp [17, 24] | Dose dependence of efficacy, in words [18] | log reduction at 25 mg/kg [18, 26] | log reduction at 100 mg/kg [18, 27] | CC50 [1] [µg/mL] | PAMPA %FA [%] | PAMPA Log Pe | Mean log lung CFU ± SEM [18, 27] [log CFU] | other results
O=[N+]([O-])c1cn2c(n1)OC[C@@H](OCc1ccc(OC(F)(F)F)cc1)C2 [PA-824, (6S)-2-nitro-6-{[4-(trifluoromethoxy)benzyl]oxy}-6,7-dihydro-5H-imidazo[2,1-b][1, 3]oxazine, reference compound] | 13 (≈ 36.2 µM) | 27.6 | 20.4 | 0.8 | 0.3 (≈ 0.835 µM) | 50900 | 2.75 | 4.8 | 0.1 | 139.9 | 17.8 | 2.7 | 3 | dose dependent increase in efficacy | 1.23 to 1.56 | 1.95 ± 0.13 |  |  |  |  | CC50 ([1]; THP1 macrophage cell line, THP1 macrophage cell lines, read-out: Cytotoxicity CC50): > 10 µg/mL; fT>MIC in plasma required ([6]; for 1-log10 kill): 48%; fT>MIC in plasma required ([6]; for 1.59 log10 kill): 77%; fT>MIC in plasma required ([6]; for bacteriostatic effect): 22%; T1/2 (i.v) ([8]; i.v. dosing at 10 mg/kg): 1.6 h; i.v. CL ([8]; i.v. dosing at 10 mg/kg): 12.1 mL/min/kg; i.v. Vss ([8]; i.v. dosing at 10 mg/kg): 1.6 L/kg; F, oral bioavailability ([11]; mice, p.o. 25 mg/kg versus i.v. 5 mg/kg (PA-824: i.v. 10 mg/kg)): 100%; T1/2 (p.o.) [11, 22]: 2.7; p.o. Tmax [11, 22]: 2 h; p.o. Cmax ([11]; mouse plasma, total concentration, single oral dose 25 mg/kg, CM-2): 6000 ng/mL; Plasma accumulation [13]: absence of plasma accumulation; PAMPA Log Pe ([14]; effective permeability): –4.2 cm/sec; PAMPA %FA ([14]; fraction absorbed): 99%; Plasma free fCmax [15]: 0.6 µg/mL; Tolerability [16]: well tolerated; Tmax ([17]; 25 mg/kg): 0.3 h; Mean log lung CFU reduction ± SEM compared to untreated controls [18, 25]: 1.48 ± 0.09 log CFU; log reduction at 25 mg/kg [18, 25]: 1.48 ± 0.09; log reduction at 100 mg/kg ([18]; 100 mg/kg oral daily for 4 weeks, mean value from three independent experiments (n = 15)): 2.3 ± 0.08
O=C(CO[C@@H]1COc2nc([N+](=O)[O-])cn2C1)N1CCN(c2ccc(C(F)(F)F)cn2)CC1 [NI-644] | 14 (≈ 30.7 µM) | 2.8 | 13.7 | 4.8 | 0.09 (≈ 0.197 µM) |  | 2.6 |  | 0.1 |  |  |  |  | no dose-dependent increase in bactericidal activity | 0.48 to 0.89 | 0.57 ± 0.07 | > 10 | 83 | –4.9 cm/sec | 6.09±0.07 | AUC ([5]; 50 mg/kg): 89500 ng·h/mL; Cmax ([5]; 50 mg/kg): 16200 ng/mL; Tmax ([5]; 50 mg/kg): 1 h; bioavailability ([5]; 50 mg/kg): 100%; half-life ([8]; 10 mg/kg, i.v. dosing at 10 mg/kg): < 1 h; T1/2 (i.v) ([8]; i.v. dosing at 10 mg/kg, 10 mg/kg): 0.9 h; half-life ([9]; 50 mg/kg): 2.9 h; half-life ([11]; 50 mg/kg): 3.6 h; Lung AUC24 ([12]; 50 mg/kg): 38.1 µg·h/g; Lung Cmax ([12]; 50 mg/kg): 7.5 µg/g; Vd ([19]; 10 mg/kg): 0.7 L/kg; clearance ([19]; 10 mg/kg): 9.5 mL/min/kg; Tmax ([17]; 50 mg/kg): 1 h; Kp ([17]; 50 mg/kg, Lung to Plasma ratio AUC24): 0.4; Kp ([17]; 50 mg/kg, Lung to Plasma ratio Cmax): 0.5; Mean log lung CFU ± SEM [18, 26]: 6.18±0.03 log CFU; Efficacy compared with PA-824, in words ([18]; 25 mg/kg oral daily for 4 weeks): significantly (P<0.05) less efficacious than PA-824; Efficacy compared with PA-824, in words [18, 28]: significantly (P<0.05) less efficacious than PA-824; Permeability in the Caco-2 assay, in words [20]: moderate permeability
O=[N+]([O-])c1cn2c(n1)OC1(CC1)C(OCc1ccc(OC(F)(F)F)cc1)C2 (centres unmarked) [NI-302] | 26 (≈ 67.5 µM) | 45.1 | 18.7 | 0.4 | 0.03 (≈ 0.0779 µM) | 144000 | 3.2 | 4.1 | 0.043 | 100.3 | 9.7 | 0.7 | 0.8 |  |  | 2.17 ± 0.22 | > 10 | 99 | –3.6 cm/sec | 4.45±0.22 | i.v. CL [21]: 4.3 mL/min/kg; Cmax ([5]; 25 mg/kg): 12900 ng/mL; bioavailability ([5]; 25 mg/kg): 100%; half-life ([8]; 5 mg/kg, i.v. dosing at 5 mg/kg): 3.7 h; half-life ([11]; 25 mg/kg): 4.1 h; Vd ([19]; 5 mg/kg): 1.2 L/kg; clearance ([19]; 5 mg/kg): 5 mL/min/kg; Efficacy compared with PA-824, in words [18, 28]: comparable efficacy to PA-824

— article PMC4139342, “Pharmacokinetics-Pharmacodynamics Analysis of Bicyclic 4-Nitroimidazole Analogs in a Murine Model of Tuberculosis” (PLoS ONE, 2014)
